# Assays:
# [1] = system: Myzus persicae; test: Pesticidal effect against Myzus persicae (cabbage leaf disk); assay type: in vivo; conditions: Myzus persicae first instar larvae, spread, 3 days, 25° C.
# From the text: A leaf disk having a diameter of 2.8 cmφ was cut out from a cabbage grown in a pot and was placed in a 5.0 cm-Schale. Four adult aphids of Myzus persicae were released in the Schale. One day after the release of the adult aphids, the adult aphids were removed. The number of larvae at the first instar born in the leaf disk was adjusted to 10, and a test solution, which had been adjusted to a predetermined concentration by the addition of a 50% aqueous acetone solution (0.05% Tween 20 added) was spread over the cabbage leaf disk. The cabbage leaf disk was then air dried. Thereafter, the Schale was lidded and was allowed to stand in a temperature-controlled room (light period 16 hr-dark period 8 hr) (25° C.).
# (§1) The death rate of larvae was calculated by the following equation. Death rate (%)={number of dead larvae/(number of survived larvae+number of dead larvae)}×100 The concentrations which gave the death rate of 90% or more are shown in Table 2.
# [2] = system: Pseudococcus comstocki; test: Pesticidal effect against Pseudococcus comstocki (Phaseolus vulgaris leaf disk); assay type: in vivo; conditions: Pseudococcus comstocki first instar larvae, spread, 3 days, 25° C.
# Method: A leaf disk having a diameter of 2.8 cmφ was cut out from a leaf of Phaseolus vulgaris and was placed on an agar in a plastic cup, into which ten (10) of larvae of Pseudococcus comstocki at the first instar were released. A test solution, which had been adjusted to a predetermined concentration by the addition of a 50% aqueous acetone solution (0.05% Tween 20 added) was spread. After air dried, it was allowed to stand in a temperature-controlled room (light period 16 hr-dark period 8 hr) (25° C.).
# as §1
# [3] = system: Aphis gossypii; test: Pesticidal effect against Aphis gossypii (cucumber leaf disk); assay type: in vivo; conditions: Aphis gossypii first instar larvae, spread, 3 days, 25° C.
# From the text: A leaf disk having a diameter of 2.0 cmφ was cut out from a cucumber grown in a pot and was placed in a 5.0 cm-Schale. A test solution, which had been adjusted to a predetermined concentration by the addition of a 50% aqueous acetone solution (0.05% Tween 20 added) was spread over the […] leaf disk. After air dried, ten (10) of larvae of Aphis gossypii at the first instar were released in the Schale. Thereafter, the Schale was lidded and was allowed to stand in a temperature-controlled room (light period 16 hr-dark period 8 hr) (25° C.).
# as §1
# [4] = system: Plutella xylostella L larvae; conditions: in vivo; cited from earlier work
# [5] = system: Tenebrio molitor L; conditions: in vivo; cited from earlier work
# [6] = system: larvae of Helicoverpa zea; conditions: in vivo; cited from earlier work
Molecule,"Concentration (ppm) for the death rate of 90% or more, Test Example 1 [1] [ppm]","Concentration (ppm) for the death rate of 90% or more, Test Example 3 [2] [ppm]","Concentration (ppm) for the death rate of 90% or more, Test Example 2 [3] [ppm]",insecticidal activity against Plutella xylostella L larvae [4],insecticidal activity against Tenebrio molitor L [5],insecticidal activity against larvae of Helicoverpa zea [6]
CC1(COC(=O)C2CC2)C2CC(=O)[C@@]3(C)Oc4cc(-c5cccnc5)oc(=O)c4[C@H](O)C3[C@@]2(C)CC[C@@H]1OC(=O)C1CC1 (stereo partly drawn) [Compound 1],0.010,0.156,0.078,,,
CC1(COC(=O)C2CC2)C2CC[C@@]3(C)Oc4cc(-c5cccnc5)oc(=O)c4[C@H](O)C3[C@@]2(C)CC[C@@H]1OC(=O)C1CC1 (stereo partly drawn) [Compound 2],0.039,0.625,0.078,,,
Pyripyropene A,,,,insecticidal activity,insecticidal activity,insecticidal activity

# From patent publication US8202890B2, “Pest control agent” (Meiji Seika Pharma Co., Ltd., priority 2006, dated 2012)
